One test concerns L1210 leukemia cells. The experiment in a line: Measurement of the action of inhibiting proliferation of L1210 leukemia cell. Type of test: cell-based. The conditions noted are these: Mus musculus, L1210, 96 h; RPMI medium with 10% FCS, 37° C., 4 days, trypan blue count of surviving cells. The protocol:
(1) Measurement of the action of inhibiting Proliferation of L1210 leukemia cell
L1210 leukemia cells were added to an RPMI medium containing 10% FCS (fetal calf serum), and the concentration of the cells was adjusted to […]. Each of the test compounds shown in Table I was dissolved in 99.5% ethanol. Prior to use, the final concentration of the ethanol solution was adjusted to less than 0.1%, and it was added to the culture medium. The culture medium was then maintained at 37° C. in a stationary condition for 4 days. After the cultivation, the number of surviving cells was measured by dyeing with trypan blue. As a control, 0.1% ethanol was used. A dose-reaction curve plotted from the ratios of proliferation against the control, and IC50 was determined.

The subject of test [1] is P388 mouse leukemia cells. The experiment in a line: Measurement of the antitumor effect on P388 mouse leukemia tumor (increase of life span). Type of test: in vivo. The conditions noted are these: intraperitoneal, 9 days, BDF1 mice. As to the method:
(2) Measurement of the antitumor effect on P338 mouse leukemia tumor
1×10^6 P388 mouse leukemia cells were intraperitoneally administered to BDF1 mice. After the lapse of 24 hours, each of the test compounds shown in Table II was intraperitoneally administered to the mice for 9 days. The periods of survival of these animals were examined and the increase of their life span (ILS %) was determined.

For a further test, the system named is B16 melanoma. The experiment in a line: Measurement of the antitumor effect on B16 melanoma mouse tumor (tumor weight). Type of test: in vivo. The conditions noted are these: intraperitoneal, day 1-9, tumor weight on day 18, BDF1 mice. As to the method:
(3) Measurement of the antitumor effect on B16 melanoma mouise tumor
For B16 melanoma, BDF1 mice were implanted subcutaneously with 0.2 ml of a 10% tumor homogenate in saline in the left flank. The test compounds were each given intraperitoneally on day 1-9. The activity was assessed by measuring the tumor weight on day 18.

Converted amounts (≈) assume the structure as drawn.

With `CC(=O)OC[C@@H](OC(C)=O)[C@H](/C=C/C=C1C(=O)C=CC1(O)CCCCOc1ccccc1)OC(C)=O` (stereo partly drawn) [5-[(4S,5R)-4,5,6-triacetoxy-2-hexenylidene]-4-(4-phenoxybutyl)-4-hydroxy-2-cyclopentenone], the IC50 with L1210 leukemia cells was found to be 0.1 mg/L (≈ 0.2 µM).
For the compound `O=C1C=CC(O)(CCCCOc2ccccc2)C1=C/C=C/[C@H](O)[C@H](O)CO` (stereo partly drawn) [5-[(4S,5R)-4,5,6-trihydroxy-2-hexenylidene]-4-(4-phenoxybutyl)-4-hydroxy-2-cyclopentenone], the “increase of life span (ILS)” value is listed as 24.5% in test [1] (5 mg/kg/day), 32.7% in test [1] (10 mg/kg/day) and 44.9% in test [1] (20 mg/kg/day). In addition, it took 0.8 mg/L (≈ 2.14 µM) to reach half-maximal inhibition in the test on L1210 leukemia cells (IC50).
Regarding `CC(=O)OC[C@@H](O)[C@H](/C=C/C=C1C(=O)C=CC1(O)CCCCOc1ccccc1)OC(C)=O` (stereo partly drawn) [5-[(4S,5R)-4,6-diacetoxy-5-hydroxy-2-hexenylidene]-4-(4-phenoxybutyl)-4-hydroxy-2-cyclopentenone], the values for the Proliferation inhibitory rate with B16 melanoma (5 mg/kg/day) and with B16 melanoma (10 mg/kg/day) were 9.6% and 45.5%, respectively. The compound further displayed an IC50 with L1210 leukemia cells of 0.2 mg/L (≈ 0.436 µM).
On to `O=C1C=CC(O)(CCCCOc2ccccc2)/C1=C\C=C\C(O)CCCO` (stereo not shown) [5-[(E)-4,7-dihydroxy-(2E)-heptenylidene]-4-(4-phenoxybutyl)-4-hydroxy-2-cyclopentenone, reference compound], for which the “increase of life span (ILS)” value in test [1] (5 mg/kg/day) is given as 21.4%; in test [1] (10 mg/kg/day), 31.2%; in test [1] (20 mg/kg/day), -69.2%. Further, the Proliferation inhibitory rate is recorded as -13.5% with B16 melanoma (5 mg/kg/day) and 32.7% in the test on B16 melanoma (10 mg/kg/day).

For the origin of these results see US5149711A, “2-cyclopentenone derivatives” (Teijin Limited, priority 1988, dated 1992).
